Experimental data from patent publication US20250283887A1, “FLUORESCENT-PROBE SOLUTION” (GORYO CHEMICAL, INC., priority 2022, published 2025).

Legend:
[1] = Storage stability of fluorescent-probe solutions of Test Examples 1 to 11 in sealed glass vials (HPLC purity); assay type: physicochemical
Procedure: A 25 mL glass vial (manufactured by Daiwa Special Glass Co., Ltd.) was filled with 0.125 mL to 0.312 mL of the fluorescent-probe solution obtained in each of Test Examples 1 to 11, and the opening of the glass vial was plugged with a rubber stopper (No. 20-T manufactured by Maruemu Corporation), and then tightly sealed with an aluminum cap over the rubber stopper. The vial filled with each of the fluorescent-probe solutions was stored at 25° C. or 50° C. in the dark for from 25 days to 32 days.
The purity of HMRef-αMan in each of the fluorescent-probe solutions within 12 hours after preparation, and that in each of the fluorescent-probe solutions after storage for from 25 days to 32 days in the vials were measured as described below, and the difference between the purities (the former−the latter) was divided by the number of storage days. Thus, the reduction amount of the purity per day was calculated. In addition, the reduction amount of the purity (converted value) in storage (3 years) at room temperature or in storage (1 year) at 50° C. was calculated from the reduction amount of the purity per day. All the purities of HMRef-αMan within 12 hours after the preparation of the fluorescent-probe solutions obtained in Test Examples 1 to 11 were 99% or more.
HPLC analysis was performed under the following conditions through use of a liquid chromatography system (UltiMate 3000, Thermo Fisher Scientific Inc.), and the ratio of the peak area of HMRef-αMan with respect to the entire peak area was calculated as a purity. • Column: Meteoric core C8, 5 μm, 4.6×150 mm (YMC Co., Ltd.) • Column temperature: 25° C. • Mobile phase A: water/TFA (1,000:1) • Mobile phase B: acetonitrile/TFA (1,000:1) • Liquid-feeding amount: 1.0 mL/min. • Wavelength: 254 nm • Liquid feeding to mobile phase: The liquid was fed under the conditions shown in the following table. […]

[2] = Storage stability of Tween 80-containing fluorescent-probe solutions of Test Examples 13 to 15 in sealed glass vials (HPLC purity); assay type: physicochemical; details: vial stored at 25°C in the dark for 85 days; converted to 3 years (FIG. 4); DMSO 10-50 v/v % with Tween 80
Procedure: HPLC analysis was performed under the following conditions through use of a liquid chromatography system (UltiMate 3000, Thermo Fisher Scientific Inc.), and the ratio of the peak area of HMRef-αMan with respect to the entire peak area was calculated as a purity. • Column: Meteoric core C8, 5 μm, 4.6×150 mm (YMC Co., Ltd.) • Column temperature: 25° C. • Mobile phase A: water/TFA (1,000:1) • Mobile phase B: acetonitrile/TFA (1,000:1) • Liquid-feeding amount: 1.0 mL/min. • Wavelength: 254 nm • Liquid feeding to mobile phase: The liquid was fed under the conditions shown in the following table.
A glass vial was filled with the fluorescent-probe solution obtained in each of Test Examples 13 to 15, and sealed with a rubber stopper. The vial filled with each of the fluorescent-probe solutions was stored at 25° C. in the dark for 85 days, and analysis was performed by liquid chromatography.
In the same manner as in Test Examples 1 to 11, the purity of HMRef-αMan and the content of the oxidized form thereof in each of the fluorescent-probe solutions within 12 hours after preparation, and those in each of the fluorescent-probe solutions after storage for 85 days in the vials were measured, and the reduction amount of the purity and the increase amount of the oxidized form in 3 years were calculated as converted values. […]

stability during storage ([1]; presence of water in the solvent, FIG. 1 and FIG. 2): improved
SMILES: OC[C@H]1O[C@H](Cc2ccc3c(c2)Oc2cc(NCC(F)(F)F)ccc2C32OCc3ccccc32)[C@@H](O)[C@@H](O)[C@@H]1O (stereo partly shown) [HMRef-αMan]
main analog observed after storage (mass spectrometry of resolved HPLC peak) ([1]; after storage for 25 to 32 days in the vials): an analog (oxidized form) in which two hydrogen atoms were lost from HMRef-αMan was observed as a main analog
reduction in purity of HMRef-αMan during storage ([1]; vial stored at 25°C or 50°C in the dark for 25 to 32 days, converted to 3 years at room temperature / 1 year at 50°C (FIG. 1, FIG. 2), DMSO/water with or without phosphate): suppressed by the presence of water in the solvent
reduction in purity of HMRef-αMan during storage [2]: suppressed even when the content of the organic solvent is reduced by adding the solubilizer
